Measured values: patent US10352938B2, “Macrocyclic HOPO chelators” (LUMIPHORE, INC., priority 2009, dated 2019)

Experiments:
[1] = Luminescence quantum yield, emission and brightness in aqueous 0.1 M TRIS buffer; format: physicochemical
Description: Quantum Yield. Quantum yield will be measured using established methods. Fluorescence quantum yield Q are measured in diluted solution with an optical density lower than 0.1 using the following equation Qx/Qr=[Ar(λr)/Ax(λx)][nx^2/nr^2][Dx/Dr] were A is the absorbance at the excitation wavelength (λ), n the refractive index and D the integrated luminescence intensity. Subscripts “r” and “x” stand for reference and sample, respectively. References will be a quinine bisulfate in 1N sulfuric acid in aqueous solution (Qt=0.546)^1 and Ru(bpy)3 2C1 complexes in water solution (Qr=0.028)^2 for all complexes. A plot of integrated emission intensity (i.e. Dr) versus absorbance (i.e. Ar(λr)) yields a linear plot with a slope which can be equated to the reference quantum yield Qr. By analogy, for the unknown sample, a plot of integrated emission intensity (i.e. Dx) versus absorbance (i.e. Ax(λx)) yields a linear plot and Qx can then be evaluated. A minimum of at least two independent measurements will be averaged to derive a reliable value.

[2] = Luminescence lifetimes (TRIS buffer, deuterated water, 77K) and inner sphere water number q
Description: Fluorescent decay signals can be acquired using an IBH DataStation Hub photon counting module and data analysis performed using the commercially available DAS 6 decay analysis software package from HORIBA Jobin Yvon IBH. Goodness of fit will be assessed by minimizing the reduced chi squared function, χ2, and a visual inspection of the weighted residuals. Each trace will use at least 10,000 points and the reported lifetime values result from at least three independent measurements.
In addition to the steady state emission spectra, the luminescence quantum yields and luminescence lifetimes of the Eu(III) complexes were also measured in aqueous solution with 0.1 M TRIS buffer pH=7.4 and in deuterated solution to estimate the number of inner sphere water molecule (i.e. q) using the improved Horrock's equations.
Luminescence lifetimes were also determined at 77K, in a solid matrix (Table 5), which have allowed us to determine whether back energy transfer between the donor triplet excited state and the acceptor manifold excited state of the lanthanide is present, or alternately whether quenching via low lying LMCT state occurs.

[3] = Stability titration (pEu) by competitive batch titration using DTPA; format: physicochemical
Description: (§1) Stability Titrations. The general procedure used to determine the pEu values of ligands was adapted from an already described study using Gd and are similar to that already reported for other complexes. Different volumes of a standardized DTPA stock solution were added to solutions of constant ligand, metal, and electrolyte concentrations. Concentrations of complexed ligand in each solution were determined by subtracting the remaining luminescence intensity after addition of DTPA to the initial luminescence intensity at identical pH and those concentrations were used as references for the analysis. Stability of compounds towards mM concentrations of EDTA and divalent cations will be assessed by incubation of the proposed molecules at nM concentration at room temperature in aqueous solutions of test ions. Time Resolved Fluorescent signal will be assessed at the outset of experiment and monitored over a minimum of 24 hours to determine signal change.

[4] = Triplet excited state energy from phosphorescence of Gd complexes at 77K; format: physicochemical; settings: solid matrix (methanol/ethanol 1/4), using the Gd complexes
Description: Estimation of the energies of the ligand based triplet excited state were determined using the Gd(III) complexes. Gadolinium was chosen because it is a 4f^7 lanthanide cation having a similar 4f electronic configuration and size as the europium cation (4f^6), but lacking an accessible metal based low energy electronic excited state. At room temperature, only a broad weak emission centered between 380-400 nm can be seen for the Gd(III) complexes. […] At 77K, in solid matrix, an emission band at approx. 500 nm can be seen (FIG. 8). This emission, red-shifted compared to the singlet excited state, can be assigned to phosphorescence from the triplet excited state, lower in energy than the singlet excited state observed at room temperature. Selective time gated phosphorescence spectra (delay 0.1 ms) of the gadolinium complexes at 77K are depicted in FIG. 8.

[5] = UV/visible absorption spectroscopy of Eu(III) complexes in TRIS buffer; format: physicochemical
From the text: Extinction Coefficient. A series of solutions of varied concentrations will be prepared from the solids based on mass and purity. The absorbance of each of these solutions at both 340 nm and at the appropriate acceptor wavelength will be measured and plotted according to Beer's Law (A=εcL where A is absorbance, ε is the extinction coefficient in M^−1 cm^−1, c is concentration, and L is path length in cm) with the fitted linear regression slope equal to […] on a plot of A as a function of C.
Each of the spectra have absorption maxima around 335-340 nm (FIG. 2). Those bands are composed of two electronic transitions; at higher energy, a purely π-π* transition and, at slightly lower energy (around ca. 320 nm), a π-π* transition with some n-π* character, as evidenced previously from TD-DFT calculations. […] This interaction gives maxima blue-shifting from 341 nm for [Eu(H(2,2)-1,2-HOPO)]^0 to 334 nm for [Eu(H(17O5,2)-1,2-HOPO)]^0 (as low as 332 nm for)[Eu(5LIN^Me-1,2HOPO)2]^0).

[6] = Stability testing in concentrated solutions of divalent cations and EDTA; format: physicochemical; settings: over 24 hrs
Description: as §1
Although these conditions represent concentrations that are in excess of those typically encountered in routine commercial use, they are a benchmark used in the high-throughput screening industry to evaluate these types of molecules. For comparison, stability testing of the commercialized Lumi4-Tb compound is shown (FIG. 3, top) and represents the stability benchmark for these types of molecules.

[7] = Calculation of Eu luminescence parameters (radiative lifetime, rate constants, efficiencies); format: physicochemical
Description: In this equation, the ηISC ηET term is termed the sensitization efficiency, ηsens (ηsens=ηISC ηET). All the luminescence parameters τR (the pure radiative luminescence lifetime), kR and knR (the radiative and non-radiative constant rate) can be deduced. These parameters were calculated for five of the octadentate complexes and the model complex that present only one species in solution at pH=7.4 and are reported in Table 6.

In the case of `O=C(NCCN(CCNC(=O)c1cccc(=O)n1O)CCOCCOCCOCCN(CCNC(=O)c1cccc(=O)n1O)CCNC(=O)c1cccc(=O)n1O)c1cccc(=O)n1O` [Eu(H11-3)], the øTot ([1]; 0.1M TRIS buffer pH = 7.4) is reported as 0.165, the ϕTot ([1]; aqueous TRIS pH = 7.4, complexes with only one species) is reported as 0.165 and the “quantum yield in aqueous medium” value ([1]; aqueous medium) is reported as 17%. For the same molecule, the ϕTot ([1]; aqueous quantum yield) was 0.165, the Brightness ([1]; at maximum absorption, product of quantum yield and molar absorption coefficient, 0.1 M TRIS pH = 7.4) was 2485 M⁻¹ cm⁻¹ and the “overall quantum yield (in words)” value ([1]; related to inner-sphere coordinated water) was “comparatively high quantum yields”. The τ ([2]; aqueous TRIS pH = 7.4) was 668 μs, the “τ^D” value ([2]; deuterated solution, first component) was 888 μs and the “τ^D” value ([2]; deuterated water, first component) was 888 μs. For the same molecule, the τ ([2]; first (longer) component) was 668 μs, the q ([2]; inner sphere water molecules, improved Horrock's equations, first species) was 0.1 and the “τ (77K)” value ([2]; solid matrix at 77K (methanol/ethanol 1/4), first component) was 765 μs. For the same molecule, the pEu ([3]; competitive batch titration using DTPA in 0.1M TRIS pH = 7.4 and 0.1M KCl) was 20.4, the “pEu value as compared to DTPA” value ([3]; in words) was “increased” and the “T0-0 (triplet excited state energy)” value [4] was 22,120 cm^−1. The ε ([5]; TRIS buffer pH = 7.4) was 15,070 M^−1 · cm^−1, the “λ^maxabs” value ([5]; TRIS buffer pH = 7.4) was 334 nm and the λ ([5]; absorption maximum) was 334 nm. The ε ([5]; extinction coefficient, in M-1·cm-1) was 15,070, the “signal change in concentrated solutions of divalent cations and EDTA” value [6] was “significant signal loss” and the sensitization process efficiency [7] was 40.2%. The “η^Eu” value ([7]; efficiency of metal centred luminescence) was 0.411, the knr ([7]; non-radiative rate constant) was 882 s⁻¹ and the τrad ([7]; pure radiative luminescence lifetime, aqueous TRIS pH = 7.4) was 1630 μs. The kr ([7]; radiative rate constant) was 615 s⁻¹ and the “η^sens” value ([7]; sensitization efficiency) was 0.402.
